Laboratory results from patent US20140228440A1, “1-AMINO-ALKYLCYCLOHEXANE DERIVATIVES FOR THE TREATMENT OF INFLAMMATORY SKIN DISEASES” (MERZ PHARMA GmbH & CO. KGaA, priority 2008, published 2014).

Columns and labels:
[1] = test system: dermal application sites; experiment: Local tolerability of topical formulation, 14 days of daily dermal treatment; type: in vivo, Göttingen minipigs
Procedure: The objective of this study is to evaluate the local tolerance of Neramexane mesylate in a topical formulation at different dose levels after 14 days of daily dermal treatment to minipigs.
The study is performed in 4 female Gottingen SPF minipigs (from Ellegaard Gottingen Minipigs Aps). Each animal has 5 application sites (25 cm^2) marked on the back and is dosed for 8 hours each day. Each test site is used for the same test item or placebo throughout the study. The test group is treated with Neramexane mesylate at the following concentrations: 0, 0.5, 2.5, 5.0 and 10.0% (w/w).
Clinical signs are recorded 2-4 hours post start of each treatment and the local dermal reactions (erythema, oedema) are evaluated prior to treatment. Body weight is recorded weekly (and also on Day 1 and at necropsy).

[2] = test system: Propionibacterium granulosum ATCC 11829; experiment: MIC and MBC by the agar dilution method; type: cell-based
Procedure: (§1) To assess the anti-microbial potency of Neramexane against acne relevant bacterias the minimal inhibitory concentration (MIC) and minimal bactericidal concentration (MBC) against the following bacterias is established: The MICs of the samples are determined using the agar dilution method based on DIN 58940. Petri dishes of 5.5 cm diameter are poured with 2.5 ml of freshly prepared Mueller-Hinton agar (Merck company, Cat-No 1.05437) or Wilkins-Chalgren-Agar (Oxoid company, Cat-No CM643), maintained in liquid form at 50° C., to which the sample dilutions at various concentrations have been added at 50.0 vol.-%. To prepare the starting sample dilutions, a 12.5%, 3.12% suspension of the respective sample solution is prepared with Aqua purificata. From these stock-solutions, further dilutions are prepared with Aqua purificata. All test compounds are adjusted to pH 5.5. For test product no. 1, separate dilutions adjusted to pH 6.0 and pH 7.4 are also prepared. For inoculation, 1 μl of the respective germ suspension is placed on the centre of each agar plate. After drying, inoculated plates are incubated at 36.0±2.0° C. The basis for the length of incubation period is the respective growth control cultivated in parallel. The test microbe suspension is prepared by inoculating a few individual colonies of the respective bacteria into sterile saline solution until a turbidity corresponding to the McFarland standard 1.0 (approximately 10^8 cfu/ml) is reached. After that, the test microbe suspensions are further diluted 1:10 with saline solution and the microbial counts (see Table 21) are determined by the surface spread method using a spiral plater. The agar plates are incubated under the conditions given in Table 22 and subsequently evaluated. The MIC-values as given represent the lowest concentration of the active substance at which there is no macroscopically visible growth. Minimal, barely visible growth or few small individual colonies are evaluated as inhibition. [table] All negative tests of the determination of the minimal bactericial concentration are the basis of verification of remaining germs, the inoculated agar segments are cut and put in Mueller-Hinton-Bouillon (germ 1) or Wilkins-Chalgren-Bouillon (germs 2-4). After an adequate incubation period at 36.0±2.0° C. (as judged from a control without test compound), the tests are checked manually on microbial growth (=turbidity) and the minimal bactericidal concentration is determined. MBC indicates the concentration without marked turbidity. Grown germs are checked for identity to rule out unspecific contaminations. The following results are summarized and tabulated: • a) Results of the Minimal Inhibitory Concentration (MIC)* • b) Results of the Minimal Bactericidal Concentration (MBC) *The MIC is the concentration without macroscopical growth. Scarcely apparent, minimum growth or few single colonies are not considered. The controls must have a respectively good developed growth. There must be no growth on the agar plates for the sterile control. The growth of bacteria is indicated for the duplicate plates by a +(i.e., growth) or a −(i.e., no growth), +− indicates weak growth on both plates or growth on one plate and no growth on the other plate. All bacteria show appropriate growth on the respective control plate not containing any test compound. No influence of the used diluent (Aqua purifacata) was observed. No contamination is observed on the control-plates.

[3] = test system: Staphylococcus epidermidis ATCC 12228; experiment: MIC and MBC by the agar dilution method; type: cell-based; conditions: pH 5.5
Procedure: as §1

[4] = 0.5, 2.5, 5.0 and 10.0% (w/w), dermal, 14 days
[5] = final concentration 0.08 %, pH 5.5
[6] = final concentration 0.08 %, pH 6.0
[7] = final concentration 0.08 %, pH 7.4
[8] = final concentration 0.16 %, pH 5.5
[9] = final concentration 0.16 %, pH 6.0
[10] = final concentration 0.16 %, pH 7.4
[11] = final concentration 0.31 %, pH 5.5
[12] = final concentration 0.31 %, pH 6.0
[13] = final concentration 0.31 %, pH 7.4
[14] = final concentration 0.63 %, pH 5.5
[15] = final concentration 0.63 %, pH 6.0
[16] = final concentration 0.63 %, pH 7.4
[17] = final concentration 1.56 %, pH 5.5
[18] = final concentration 1.56 %, pH 6.0
[19] = final concentration 1.56 %, pH 7.4
[20] = final concentration 2.50 %, pH 5.5
[21] = final concentration 2.50 %, pH 6.0
[22] = final concentration 2.50 %, pH 7.4
[23] = final concentration 3.13 %, pH 5.5
[24] = final concentration 3.13 %, pH 6.0
[25] = final concentration 3.13 %, pH 7.4
[26] = final concentration 6.25 %, pH 5.5
[27] = final concentration 6.25 %, pH 6.0
[28] = final concentration 6.25 %, pH 7.4

growth of bacteria on duplicate plates (MIC determination) ([2]; final concentration 0.01 %, pH 5.5): + + | growth of bacteria on duplicate plates (MIC determination) ([2]; final concentration 0.01 %, pH 6.0): + + | growth of bacteria on duplicate plates (MIC determination) ([2]; final concentration 0.01 %, pH 7.4): + + | growth of bacteria on duplicate plates (MIC determination) ([2]; final concentration 0.04 %, pH 5.5): + + | growth of bacteria on duplicate plates (MIC determination) ([2]; final concentration 0.04 %, pH 6.0): + − | growth of bacteria on duplicate plates (MIC determination) ([2]; final concentration 0.04 %, pH 7.4): + − | growth of bacteria on duplicate plates (MIC determination) [2, 5]: − − | growth of bacteria on duplicate plates (MIC determination) [2, 6]: − − | growth of bacteria on duplicate plates (MIC determination) [2, 7]: − − | growth of bacteria on duplicate plates (MIC determination) [2, 8]: − − | growth of bacteria on duplicate plates (MIC determination) [2, 9]: − − | growth of bacteria on duplicate plates (MIC determination) [2, 10]: − − | growth of bacteria on duplicate plates (MIC determination) [2, 11]: − − | growth of bacteria on duplicate plates (MIC determination) [2, 12]: − − | growth of bacteria on duplicate plates (MIC determination) [2, 13]: − − | growth of bacteria on duplicate plates (MIC determination) [2, 14]: − − | growth of bacteria on duplicate plates (MIC determination) [2, 15]: − − | growth of bacteria on duplicate plates (MIC determination) [2, 16]: − − | growth of bacteria on duplicate plates (MIC determination) [2, 17]: − − | growth of bacteria on duplicate plates (MIC determination) [2, 18]: − − | growth of bacteria on duplicate plates (MIC determination) [2, 19]: − − | growth of bacteria on duplicate plates (MIC determination) [2, 20]: − − | growth of bacteria on duplicate plates (MIC determination) [2, 21]: − − | growth of bacteria on duplicate plates (MIC determination) [2, 22]: − − | growth of bacteria on duplicate plates (MIC determination) [2, 23]: − − | growth of bacteria on duplicate plates (MIC determination) [2, 24]: − − | growth of bacteria on duplicate plates (MIC determination) [2, 25]: − − | growth of bacteria on duplicate plates (MIC determination) [2, 26]: − − | growth of bacteria on duplicate plates (MIC determination) [2, 27]: − − | growth of bacteria on duplicate plates (MIC determination) [2, 28]: − − | MIC ([2]; pH 5.5): 0.08% | MIC ([2]; pH 6.0): 0.08% | MIC ([2]; pH 7.4): 0.08% | growth of bacteria on duplicate plates (MIC determination) ([3]; final concentration 0.01 %): + + | growth of bacteria on duplicate plates (MIC determination) ([3]; final concentration 0.04 %): + + | growth of bacteria on duplicate plates (MIC determination) ([3]; final concentration 0.08 %): + + | growth of bacteria on duplicate plates (MIC determination) ([3]; final concentration 0.16 %): − − | growth of bacteria on duplicate plates (MIC determination) ([3]; final concentration 0.31 %): − − | growth of bacteria on duplicate plates (MIC determination) ([3]; final concentration 0.63 %): − − | growth of bacteria on duplicate plates (MIC determination) ([3]; final concentration 1.56 %): − − | growth of bacteria on duplicate plates (MIC determination) ([3]; final concentration 2.50 %): − − | growth of bacteria on duplicate plates (MIC determination) ([3]; final concentration 3.13 %): − − | growth of bacteria on duplicate plates (MIC determination) ([3]; final concentration 6.25 %): − − | MIC [3]: 0.16%
Compound: CC1(C)CC(C)(C)CC(C)(N)C1.CS(=O)(=O)O [Neramexane mesylate]
test item related changes (conclusion) ([1]; 0.5%, 2.5%, 5% and 10% in a topical formulation, 14 Days): no test item related changes | clinical signs and body weight gain [1, 4]: No test item related changes are observed | dermal skin reactions (erythema, oedema) [1, 4]: no test item related dermal skin reactions are observed | gross necropsy [1, 4]: no macroscopic changes are observed | histopathology evaluation of the dermal application sites [1, 4]: no treatment-related macroscopic or microscopic findings | growth of bacteria (MBC determination) [2, 5]: + + | growth of bacteria (MBC determination) [2, 6]: + + | growth of bacteria (MBC determination) [2, 7]: + + | growth of bacteria (MBC determination) [2, 8]: + + | growth of bacteria (MBC determination) [2, 9]: + + | growth of bacteria (MBC determination) [2, 10]: + + | growth of bacteria (MBC determination) [2, 11]: + + | growth of bacteria (MBC determination) [2, 12]: − − | growth of bacteria (MBC determination) [2, 13]: + + | growth of bacteria (MBC determination) [2, 14]: − − | growth of bacteria (MBC determination) [2, 15]: − − | growth of bacteria (MBC determination) [2, 16]: + + | growth of bacteria (MBC determination) [2, 17]: − − | growth of bacteria (MBC determination) [2, 18]: − − | growth of bacteria (MBC determination) [2, 19]: − − | growth of bacteria (MBC determination) [2, 20]: − − | growth of bacteria (MBC determination) [2, 21]: − − | growth of bacteria (MBC determination) [2, 22]: − − | growth of bacteria (MBC determination) [2, 23]: − − | growth of bacteria (MBC determination) [2, 24]: − − | growth of bacteria (MBC determination) [2, 25]: − − | growth of bacteria (MBC determination) [2, 26]: − − | growth of bacteria (MBC determination) [2, 27]: − − | growth of bacteria (MBC determination) [2, 28]: − − | MBC ([2]; pH 5.5): 0.63% | MBC ([2]; pH 6.0): 0.31% | MBC ([2]; pH 7.4): 1.56% | growth of bacteria (MBC determination) ([3]; final concentration 0.16 %): + + | growth of bacteria (MBC determination) ([3]; final concentration 0.31 %): + + | growth of bacteria (MBC determination) ([3]; final concentration 0.63 %): + + | growth of bacteria (MBC determination) ([3]; final concentration 1.56 %): − − | growth of bacteria (MBC determination) ([3]; final concentration 2.50 %): − − | growth of bacteria (MBC determination) ([3]; final concentration 3.13 %): − − | growth of bacteria (MBC determination) ([3]; final concentration 6.25 %): − − | MBC [3]: 1.56%
